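Cultured in 96-well plates, cells were exposed to test compound for 48 hours across five concentrations. TGI: total growth inhibition.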
What was measured:
Assay in all cases: NCI tumour cell line growth inhibition, 48 h
LOX IMVI melanoma = tested on: LOX IMVI melanoma
NCI-H460 lung = tested on: NCI-H460 lung
SF-295 CNS = tested on: SF-295 CNS
KM12 colon = tested on: KM12 colon
HT29 colon = tested on: HT29 colon
NCI-H522 lung = tested on: NCI-H522 lung
A498 renal = tested on: A498 renal
COLO 205 colon = tested on: COLO 205 colon
MDA-MB-435 = tested on: MDA-MB-435
NCI/ADR-RES ovarian = tested on: NCI/ADR-RES ovarian
SK-MEL-5 melanoma = tested on: SK-MEL-5 melanoma
MDA-N = tested on: MDA-N

| SMILES | TGI (LOX IMVI melanoma) | TGI (NCI-H460 lung) | TGI (SF-295 CNS) | TGI (KM12 colon) | TGI (HT29 colon) | TGI (NCI-H522 lung) | TGI (A498 renal) | TGI (COLO 205 colon) | TGI (MDA-MB-435) | TGI (NCI/ADR-RES ovarian) | TGI (SK-MEL-5 melanoma) | TGI (MDA-N) |
| --- | --- | --- | --- | --- | --- | --- | --- | --- | --- | --- | --- | --- |
| O=C(c1ccccc1)c1cc(Cl)ccc1NCn1nnc2ccccc21 | > 100 µM | > 100 µM | > 100 µM | > 100 µM | > 100 µM | > 100 µM | > 100 µM | > 100 µM | – | – | – | – |
| CN(/N=C\c1ccc2ccccc2c1)C1=NCCCN1 | 21.6 µM | 20.3 µM | 26.8 µM | 32.1 µM | 31.1 µM | 30.3 µM | 28.8 µM | 25.3 µM | 30.8 µM | 74.4 µM | 24.6 µM | – |
| COc1cc2c(cc1OC)C(=O)/C(=C/c1ccc(N(C)C)cc1)CC2 | > 10 µM | > 10 µM | > 10 µM | > 10 µM | > 10 µM | – | – | > 10 µM | > 10 µM | > 10 µM | > 10 µM | > 10 µM |
| COC1OC(C(=O)O)C2OC(C)(C)OC12 (stereo not drawn) | > 100 µM | > 100 µM | > 100 µM | > 100 µM | > 100 µM | > 100 µM | – | > 100 µM | > 100 µM | > 100 µM | > 100 µM | > 100 µM |
| COC(=O)CC1CC2(C(=O)OC)c3[nH]c4ccccc4c3CCN2C1=O (stereo not drawn) | > 100 µM | > 100 µM | > 100 µM | > 100 µM | > 100 µM | > 100 µM | > 100 µM | > 100 µM | – | – | > 100 µM | – |
| CC(=O)N1c2cc(N=NN(C)C)ccc2NC(=O)CC1C (stereo not drawn) | – | > 100 µM | > 100 µM | > 100 µM | > 100 µM | > 100 µM | – | > 100 µM | > 100 µM | > 100 µM | > 100 µM | > 100 µM |
| CC(CC=O)Nc1nn2c(=O)c3ccccc3nc2s1 (stereo not drawn) | > 100 µM | > 100 µM | > 100 µM | > 100 µM | > 100 µM | > 100 µM | > 100 µM | > 100 µM | > 100 µM | > 100 µM | > 100 µM | – |
| O=S(=O)(O)c1cc(O)c(N=Nc2ccc3ccccc3c2O)c2ccccc12 | – | – | > 100 µM | > 100 µM | 72.3 µM | 40.2 µM | – | > 100 µM | – | 46.7 µM | 25.2 µM | > 100 µM |
| CC[C@@]12CCC(=S)N(CCSc3ccccc3)[C@@H]1c1c(n(S(=O)(=O)c3ccc(OC)cc3)c3ccccc13)CC2 | > 100 µM | > 100 µM | > 100 µM | > 100 µM | > 100 µM | > 100 µM | > 100 µM | > 100 µM | > 100 µM | > 100 µM | > 100 µM | – |
| O=c1[nH]c2ccc([N+](=O)[O-])cc2nc1/C(=N/Nc1ccccc1)C(O)c1ccco1 (stereo not drawn) | > 100 µM | > 100 µM | > 100 µM | > 100 µM | > 100 µM | 96.5 µM | – | > 100 µM | – | – | 90.6 µM | – |
| CC(=O)NN(c1ccccc1)C1CCN(c2ccccc2)N1C(C)=O (stereo not drawn) | > 10 µM | > 10 µM | > 10 µM | – | > 10 µM | > 10 µM | – | > 10 µM | > 10 µM | > 10 µM | > 10 µM | > 10 µM |
| N#Cc1c(N)nc(Sc2ccccc2N)c(C#N)c1-c1ccccc1 | 41.3 µM | 50.6 µM | – | 94.8 µM | > 100 µM | – | – | > 100 µM | 97.3 µM | 42.5 µM | > 100 µM | – |
| CC(=O)[C@]1(O)Cc2c(O)c3c(c(O)c2[C@@H](OC2CC(N)C(O)C(C)O2)C1)C(=O)c1c(OCc2ccccc2)cccc1C3=O (stereo partly drawn) | – | 6.31 µM | 4.05 µM | – | 14.7 µM | 5.19 µM | 21.8 µM | – | 2.95 µM | – | 5.84 µM | 2.98 µM |
| CC1=CCN(c2ccccn2)OC1c1ccccc1 (stereo not drawn) | > 100 µM | > 100 µM | > 100 µM | > 100 µM | > 100 µM | > 100 µM | – | > 100 µM | – | – | – | – |
| C(=C\c1c2oc(-c3ccccc3)cc(-c3ccccc3)c-2c2ccccc12)/C=C1\c2ccccc2-c2c(-c3ccccc3)cc(-c3ccccc3)[o+]c21 | > 100 µM | > 100 µM | > 100 µM | – | > 100 µM | > 100 µM | > 100 µM | > 100 µM | – | – | > 100 µM | – |
| c1ccc(Nc2nnc(CCCCCCCCc3nnc(Nc4ccccc4)o3)o2)cc1 | > 100 µM | > 100 µM | > 100 µM | > 100 µM | > 100 µM | > 100 µM | > 100 µM | > 100 µM | > 100 µM | > 100 µM | > 100 µM | – |
| O=C(/C(=C/c1ccc(O)cc1)c1ccccc1)c1ccccc1 | 25.9 µM | 38.4 µM | 33.4 µM | 29.1 µM | 32.1 µM | 28.7 µM | 32 µM | 32.8 µM | – | – | 28.3 µM | – |
